The values that follow come from US20250281449A1, “NITROGEN-CONTAINING ANALOGS OF SALINOMYCIN FOR USE IN MULTIPLE MYELOMA (MM)” (Centre National de la Recherche Scientifique, priority 2021, published 2025).

One data set deals with MM cell lines. Description: Cell growth inhibition in panel of MM cell lines. Type of data set: cell-based, human. Conditions: 96H. As for the experimental part: (§1) The panel of 17 HMCL cell lines were incubated with increasing concentrations of Ironomycin (A), AM23 (B) or vehicle for 96H.
(§2) HMCL cell lines were cultured for 4 days in 96-well flat-bottom microtiter plates in RPMI 1640 medium or DMEM medium, 10% or 20% FCS (control medium) in the presence of various compounds. The number of viable cells in culture was determined using the Cell Titer-Glo Luminescent Cell Viability Assay from Promega, Madison, WI, USA using a Centro LB 960 luminometer (Berthold Technologies, Bad Wildbad, Germany).
(§3) This test is based on quantitation of the intracellular ATP present, which signals the presence of metabolically active cells. Data are expressed as the mean percentage of six replicates, normalized to the untreated control.
The therapeutic interest of iron metabolism inhibitors AM5 (Ironomycin) and AM23 was further investigated using large collection of 18 MM cell lines (Moreaux J et al. Haematologica 2011; Vikova V et al. Theranostics 2019). The IC50 of Ironomycin and AM23 respectively are illustrated in the Table 5 hereunder: […]

In the next data set the test system is XG-1. The data set is described as follows: Cell viability assay (Cell Titer-Glo), HMCL. It is filed as cell-based. Conditions: Homo sapiens; XG-1 HMCL, 96H; read-out: IC50. As for the experimental part: as §1, §2, §3
On the technique in general: ATP-based viability assays read luminescence as a measure of living cells.

Another data set deals with JJN3. The data set is described as follows: Cell viability assay (Cell Titer-Glo), HMCL. Type of data set: cell-based. Particulars: Homo sapiens, JJN-3, 96H. As for the experimental part:
as §1, §2, §3

Another data set relates to XG-19. Description: Cell viability assay (Cell Titer-Glo), HMCL. It is filed as cell-based. Conditions: Homo sapiens; XG-19 HMCL, 96H. As for the experimental part:
as §1, §2, §3

A further data set concerns XG28. The data set is described as follows: Cell viability assay (Cell Titer-Glo), HMCL. It is filed as cell-based. Conditions: Homo sapiens; XG28 HMCL, 96H; read-out: IC50. As for the experimental part: as §1, §2, §3
For a further data set, the system named is XG2. Description: Cell viability assay (Cell Titer-Glo), HMCL. It is filed as cell-based. Conditions: Homo sapiens, 96H. As to the method: as §1, §2, §3
The next data set concerns XG20. Description: Cell viability assay (Cell Titer-Glo), HMCL. Particulars: Homo sapiens; XG20 HMCL, 96H; read-out: IC50. It is filed as cell-based. As for the experimental part: as §1, §2, §3
In another data set the test system is AMO-1. The data set is described as follows: Cell viability assay (Cell Titer-Glo), HMCL. Type of data set: cell-based. Conditions: Homo sapiens, AMO1; AMO-1 HMCL, 96H. As to the method: as §1, §2, §3
Data set [1] has as its system CD34+ cells (normal hematopoietic progenitors). Type of data set: cell-based, human. As for the experimental part: Hematopoietic progenitor colony-forming units assay were performed with CD34+ cells from apheresis of 5 donors. Cells were cultured in hydroxyl-methyl-cellulose medium with or without conventional chemotherapy or Ironomycin (A) or AM-23 (B). CFU-C, CFU-E/BFU-E and CFU-GM, -G, -M were counted after 14 days culture. N=5.

Data set [2] deals with XG-1, XG-7 and OPM-2 cell lines. Description: Apoptosis induction (Annexin V staining or PARP-cleavage, flow cytometry). Particulars: IC50 of ironomycin, 72H. It is filed as cell-based, human. As for the experimental part: XG-1, XG-7 and OPM-2 cell lines were treated with IC50 of ironomycin during 72H. Apoptosis induction was monitored by Annexin V staining (XG-1 and XG-7) or PARP-cleavage and analyzed by flow cytometry (A).
Annexin V-PE staining for apoptosis analysis was performed using the “PE Annexin V Apoptosis Detection Kit I” (559763, Becton Dickinson).
The cell cycle progression was studied by flow cytometry using the Apoptosis, DNA Damage, and Cell Proliferation Kit (562253, Becton Dickinson). Briefly, cells were labeled with bromodeoxyuridine (BrdU), an analog of the DNA precursor thymidine that can be incorporated into newly synthesized DNA and detected with an antibody against BrdU to measure cell proliferation. After this labeling, the cells were fixed, permeabilized and treated with DNase to expose the BrdU epitopes. Following this treatment, cells were simultaneously stained with fluorochrome-labeled anti-BrdU, anti-cleaved Poly A DP-ribose polymerase 1 (PARP), anti-H2AX phosphorylated at serine 139. They were also stained with DAPI to determine DNA content. Finally, cells were resuspended in staining buffer and analyzed by flow cytometry (Fortessa, Becton Dickinson).
On the technique in general: Flow cytometry measures light scatter and fluorescence of single cells or particles in a stream.

In the next data set the test system is XG-7 cells. The data set is described as follows: Drug combination concentration matrix, viability by ATP quantification, Bliss synergy. It is filed as cell-based, human. As to the method: XG-7 or XG2 WT (XG2 neg) or XG2 melphalan resistant (XG2 Melph R) cell lines were respectively treated with increasing concentrations of ironomycin combined with melphalan during 96 h and cell viability was tested by ATP quantification to obtain the viability matrix. The synergy matrix was calculated as described in Material and Methods.
XG-7cells were treated with increasing concentrations of ironomycin combined with lenalidomide during 96 h and cell viability was tested by ATP quantification to obtain the viability matrix. The synergy matrix was calculated as described in Material and Methods.
XG-7cells were treated with increasing concentrations of ironomycin combined with pomalidomide during 96 h and cell viability was tested by ATP quantification to obtain the viability matrix. The synergy matrix was calculated as described in Material and Methods.
XG-7cells were treated with increasing concentrations of ironomycin combined with carfilzomib during 96 h and cell viability was tested by ATP quantification to obtain the viability matrix. The synergy matrix was calculated as described in Material and Methods.
XG-7cells were treated with increasing concentrations of ironomycin combined with AZD-5991 during 96 h and cell viability was tested by ATP quantification to obtain the viability matrix. The synergy matrix was calculated as described in Material and Methods
as §2
The interaction between the drugs tested in vitro was investigated with a concentration matrix test, in which increasing concentration of each single drug were assessed with all possible combinations of the other drugs. For each combination, the percentage of expected growing cells in the case of effect independence was calculated according to the Bliss equation (Combes et al., 2019): […]
where fuC is the expected fraction of cells unaffected by the drug combination in the case of effect independence, and fuA and fuB are the fractions of cells unaffected by treatment A and B, respectively. The difference between the fraction of living cells in the cytotoxicity test and the fuC value was considered as an estimation of the interaction effect, with […]. Synergy matrix was built with the R package “SynergyFinder”.

Molecules are shown by their SMILES. pIC50: −log10 of the molar value. Entries after “also recorded” stand apart in the source; their conditions may differ.

Usually pIC50 stands for the IC50 on a negative log10 scale, so that one unit is a factor of ten. Consider `C#CCN[C@@H]1C=C[C@]2(O[C@H]([C@@H](CC)C(=O)[C@@H](C)[C@@H](O)[C@H](C)[C@@H]3O[C@@H]([C@@H](CC)C(=O)O)CC[C@@H]3C)[C@@H](C)C[C@H]2C)O[C@@]12CC[C@@](C)([C@H]1CC[C@](O)(CC)[C@H](C)O1)O2` [Ironomycin], for which the “cell growth inhibition / toxicity on MM cell lines” value in the data set on MM cell lines is reported as “significant cell growth inhibition; also recorded: kill MM cells with nanomolar concentration”. For the same compound, the pIC50 was 6.62 in the data set with XG-1; 7.08 with JJN3; 7.57 with XG-19; 7.51 in the data set with XG28; 7.62 in the data set on XG2; 6.35 in the data set with XG20. The negative logarithm of the IC50 (pIC50) with AMO-1 is 7.24. The “toxicity on normal hematopoietic progenitors” value in data set [1] is “low toxicity”. Also, in [2], the apoptosis induction entry is recorded as “induces apoptosis”. In the data set with XG-7 cells (XG-7, 96 h), the “interaction effect, combined with AZD5991” value is recorded as “additive effect”. In the data set with XG-7 cells (XG-7, 96 h), the “interaction effect, combined with Lenalidomide” value is reported as “synergy”. The “interaction effect, combined with Pomalidomide” value with XG-7 cells (XG-7, 96 h) is “synergy”. Besides, the “interaction effect, combined with carfilzomib” value with XG-7 cells (XG-7, 96 h) was “additive effect”. The “interaction effect, combined with melphalan” value in the data set on XG-7 cells (XG-7 or XG2 WT, 96 h) was “synergistic effect”.
